Assay results: patent US20250215029A1 (Recludix Pharma, Inc., priority 2022, published 2025)
Like-named read-outs stand apart in the source and are kept apart here.

How the values were obtained:
[1] = molecular target: T1, Recombinant STAT3 protein (STAT3 (G127-I722)) (Homo sapiens, UniProt P40763); test: STAT3 Fluorescence Polarization (FP) Assay; assay type: binding; conditions: probe 5-FAM-GpYLPQTV-NH2 2 nM, 45-minute incubation
T1 construct: Recombinant STAT3 protein (STAT3 (G127-I722))
Summary of the method: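 Read-out is fluorescence polarization (mP) after 45 min at room temperature, with IC50 fitted by nonlinear regression against log compound concentration. Mixture: 25 nM STAT3 (G127-I722), 2 nM 5-FAM-GpYLPQTV-NH2 phosphopeptide, 10 mM HEPES pH 7.4 buffer, 1% DMSO.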

[2] = molecular target: T2, Recombinant STAT6 protein (STAT6 (W123-T658)) (Homo sapiens, UniProt P42226); test: STAT6 Fluorescence Polarization (FP) Assay; assay type: binding; conditions: probe 5-FAM-Ap[…]-NH2 2 nM, 45-minute incubation
T2 construct: Recombinant STAT6 protein (STAT6 (W123-T658))
T2 sequence (P42226 123-658): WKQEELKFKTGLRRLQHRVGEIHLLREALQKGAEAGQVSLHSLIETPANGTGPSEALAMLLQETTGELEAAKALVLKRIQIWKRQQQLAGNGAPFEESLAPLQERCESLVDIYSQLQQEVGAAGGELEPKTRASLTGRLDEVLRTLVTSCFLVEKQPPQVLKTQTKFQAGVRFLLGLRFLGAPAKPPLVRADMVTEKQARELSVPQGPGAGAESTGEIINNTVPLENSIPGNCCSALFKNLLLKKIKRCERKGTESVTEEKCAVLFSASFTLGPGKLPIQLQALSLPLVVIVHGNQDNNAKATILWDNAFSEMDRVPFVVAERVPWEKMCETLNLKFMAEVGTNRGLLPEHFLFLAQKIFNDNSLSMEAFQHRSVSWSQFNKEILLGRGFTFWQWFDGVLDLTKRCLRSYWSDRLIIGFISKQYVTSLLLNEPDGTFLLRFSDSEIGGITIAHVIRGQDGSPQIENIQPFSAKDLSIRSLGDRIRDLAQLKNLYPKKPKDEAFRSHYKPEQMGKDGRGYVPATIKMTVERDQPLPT
Summary of the method: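 Displacement of a fluorescent phosphotyrosine peptide (2 nM) from 250 nM STAT6 (W123-T658) is measured by polarization after a 45-minute room-temperature incubation. Compounds are titrated serially at 1% DMSO, and IC50 values derive from regression of mP on log concentration.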

[3] = STAT3 (G127-I722) 25 nM, read-out: STAT3 (FP assay IC50 class)
[4] = STAT6 (W123-T658) 250 nM, read-out: STAT6 (FP assay IC50 class)
[5] = STAT3 25 nM, read-out: STAT3 (FP assay IC50)
[6] = STAT6 250 nM, read-out: STAT6 (FP assay IC50)

T1 sequence (P40763 127-722): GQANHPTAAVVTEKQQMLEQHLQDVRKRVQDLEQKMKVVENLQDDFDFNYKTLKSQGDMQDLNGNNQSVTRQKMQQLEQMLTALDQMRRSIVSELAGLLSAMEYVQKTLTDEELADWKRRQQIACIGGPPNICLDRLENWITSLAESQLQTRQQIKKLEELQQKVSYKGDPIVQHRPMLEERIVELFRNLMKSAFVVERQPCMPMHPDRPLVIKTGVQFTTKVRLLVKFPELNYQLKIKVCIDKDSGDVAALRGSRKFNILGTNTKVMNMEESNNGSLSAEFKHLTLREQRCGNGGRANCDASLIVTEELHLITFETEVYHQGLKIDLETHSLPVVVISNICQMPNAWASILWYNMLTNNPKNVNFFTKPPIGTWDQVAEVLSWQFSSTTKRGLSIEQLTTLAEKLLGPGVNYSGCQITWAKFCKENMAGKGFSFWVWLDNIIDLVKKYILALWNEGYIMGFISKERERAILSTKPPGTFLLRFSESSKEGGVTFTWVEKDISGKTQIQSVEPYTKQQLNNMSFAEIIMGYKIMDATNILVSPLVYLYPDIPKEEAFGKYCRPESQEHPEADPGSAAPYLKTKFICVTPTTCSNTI

Row | IC50 [1, 3] [nM] | IC50 [2, 4] [µM] | IC50 [1, 5] [nM] | IC50 [2, 6] [µM] | SMILES
1 | < 100 | 0.3 to 3 |  |  | O=C(N[C@H]1CCC[C@H]2CC[C@@H](C(=O)N3CC(c4cnccc4F)C3)N2C1=O)c1cc2cc(C(F)(F)P(=O)(O)O)ccc2s1 [Compound 762, (difluoro(2-(((3S,6S,9aS)-3-(3-(4-fluoropyridin-3-yl)azetidine-1-carbonyl)-5-oxooctahydro-1H-pyrrolo[1,2-a]azepin-6-yl)carbamoyl)benzo [b]thiophen-5-yl)methyl) phosphonic acid]
2 | 100 to 1000 | 3 to 30 |  |  | Cn1cc(C2CN(C(=O)[C@@H]3CC[C@@H]4CCC[C@H](NC(=O)c5cc6cc(C(F)P(=O)(O)O)ccc6s5)C(=O)N43)C2)c(F)n1 (stereo partly drawn) [Compound 715, (fluoro(2-(((3S,6S,9aS)-3-(3-(3-fluoro-1-methyl-1H-pyrazol-4-yl)azetidine-1-carbonyl)-5-oxooctahydro-1H-pyrrolo[1,2-a]azepin-6-yl)carbamoyl)benzo [b]thiophen-5-yl)methyl) phosphonic acid]
3 | 1000 to 10000 | 3 to 30 |  |  | Cn1ncc(C2CN(C(=O)[C@@H]3CC[C@@H]4CCC[C@H](NC(=O)c5cc6cc(C(F)P(=O)(O)O)ccc6s5)C(=O)N43)C2)c1C#N (stereo partly drawn) [Compound 743, ((2-(((3S,6S,9aS)-3-(3-(5-cyano-1-methyl-1H-pyrazol-4-yl)azetidine-1-carbonyl)-5-oxooctahydro-1H-pyrrolo[1,2-a]azepin-6-yl)carbamoyl)benzo [b]thiophen-5-yl)fluoromethyl) phosphonic acid]
4 |  |  | < 100 | 0.3 to 3 | O=C(N[C@H]1CCC[C@H]2CC[C@@H](C(=O)N3CC(c4cccnc4)C3)N2C1=O)c1cc2cc(C(F)(F)P(=O)(O)O)ccc2s1 [Compound 33, (difluoro(2-(((3S,6S,9S)-5-oxo-3-(3-(pyridin-3-yl)azetidine-1-carbonyl)octahydro-1H-pyrrolo[1,2-a]azepin-6-yl)carbamoyl)benzo[b]thiophen-5-yl)methyl) phosphonic acid]
5 | 1000 to 10000 | 3 to 30 |  |  | Cc1cc(N(C)C)ncc1C1CN(C(=O)[C@@H]2CC[C@@H]3CCC[C@H](NC(=O)c4cc5cc(CP(=O)(O)O)ccc5s4)C(=O)N32)C1 [Compound 507, ((2-(((3S,6S,9aS)-3-(3-(6-(dimethylamino)-4-methylpyridin-3-yl)azetidine-1-carbonyl)-5-oxooctahydro-1H-pyrrolo[1,2-a]azepin-6-yl)carbamoyl)benzo[b]thiophen-5-yl)methyl)phosphonic acid]
6 | 100 to 1000 | 3 to 30 |  |  | COc1c(F)cncc1C1CN(C(=O)[C@@H]2CC[C@@H]3CCC[C@H](NC(=O)c4cc5cc(C(F)P(=O)(O)O)ccc5s4)C(=O)N32)C1 (stereo partly drawn) [Compound 625, (fluoro(2-(((3S,6S,9aS)-3-(3-(5-fluoro-4-methoxypyridin-3-yl)azetidine-1-carbonyl)-5-oxooctahydro-1H-pyrrolo[1,2-a]azepin-6-yl)carbamoyl)benzo [b]thiophen-5-yl)methyl) phosphonic acid]
7 | < 100 | 3 to 30 |  |  | CO[C@H]1CCN(c2ccncc2C2CN(C(=O)[C@@H]3CC[C@@H]4CCC[C@H](NC(=O)c5cc6cc(CP(=O)(O)O)ccc6s5)C(=O)N43)C2)C1 [Compound 686, ((2-(((3S,6S,9aS)-3-(3-(4-((S)-3-methoxypyrrolidin-1-yl)pyridin-3-yl)azetidine-1-carbonyl)-5-oxooctahydro-1H-pyrrolo[1,2-a]azepin-6-yl)carbamoyl)benzo [b]thiophen-5-yl)methyl) phosphonic acid]
8 | < 100 | 3 to 30 |  |  | CCC[C@@H]1CC[C@H](NC(=O)c2cc3cc(C(F)P(=O)(O)O)ccc3s2)C(=O)N2[C@H](CC[C@H]2C(=O)N2CC(c3cnccc3OC)C2)C1 (stereo partly drawn) [Compound 241, (fluoro(2-(((3S,6S,9R,10aR)-3-(3-(4-methoxypyridin-3-yl)azetidine-1-carbonyl)-5-oxo-9-propyldecahydropyrrolo[1,2-a]azocin-6-yl)carbamoyl)benzo[b]thiophen-5-yl)methyl)phosphonic acid]

The next lines start with the compound.

Row | SMILES | IC50 [1, 3] [nM] | IC50 [2, 4] [µM] | IC50 [1, 5] [nM] | IC50 [2, 6] [µM]
9 | CCO[C@@H]1CC[C@H]2CC[C@@H](C(=O)N3CC(C(=O)N4CCOCC4)C3)N2C(=O)[C@@H](NC(=O)c2cc3cc(C(F)(F)P(=O)(O)O)ccc3s2)C1 [Compound 11, ((2-(((3S,6S,8R,10aR)-8-ethoxy-3-(3-(morpholine-4-carbonyl)azetidine-1-carbonyl)-5-oxodecahydropyrrolo [1,2-a]azocin-6-yl)carbamoyl)benzo[b]thiophen-5-yl)difluoromethyl) phosphonic acid] |  |  | 100 to 1000 | 3 to 30
10 | N=S1(=O)CCC(C2CN(C(=O)[C@@H]3CC[C@@H]4CCCC[C@H](NC(=O)c5cc6cc(C(F)(F)P(=O)(O)O)ccc6s5)C(=O)N43)C2)CC1 (stereo partly drawn) [Compound 61, (difluoro(2-(((3S,6S,10aS)-3-(3-(1-imino-1-oxidohexahydro-1l6-thiopyran-4-yl)azetidine-1-carbonyl)-5-oxodecahydropyrrolo [1,2-a]azocin-6-yl)carbamoyl)benzo[b]thiophen-5-yl)methyl) phosphonic acid] |  |  | 100 to 1000 | 0.3 to 3
11 | O=C(CCC(F)(F)F)NC1(c2ccccn2)CN(C(=O)[C@@H]2CC[C@@H]3CCCC[C@H](NC(=O)c4cc5cc(C(F)(F)P(=O)(O)O)ccc5s4)C(=O)N32)C1 [Compound 124, (difluoro(2-(((3S,6S, 10aS)-5-oxo-3-(3-(pyridin-2-yl)-3-(4,4,4-trifluoro-butanamido)azetidine-1-carbonyl)decahydro-pyrrolo [1,2-a]azocin-6-yl)carbamoyl)benzo[b]thiophen-5-yl)methyl) phosphonic acid] |  |  | < 100 | 3 to 30
12 | O=C(N[C@H]1CC/C=C\[C@H]2CC[C@@H](C(=O)N3CC(c4cccnc4)C3)N2C1=O)c1cc2cc(C(F)(F)P(=O)(O)O)ccc2s1 [Compound 26, (difluoro(2-(((3S,6S,10aR,Z)-5-oxo-3-(3-(pyridin-3-yl)azetidine-1-carbonyl)-1,2,3,5,6,7,8,10a-octahydropyrrolo[1,2-a]azocin-6-yl)carbamoyl)benzo[b]thiophen-5-yl)methyl) phosphonic acid] |  |  | < 100 | 0.3 to 3
13 | Cn1nccc1C=C1CN(C(=O)[C@@H]2CC[C@@H]3CCCC[C@H](NC(=O)c4cc5cc(C(F)(F)P(=O)(O)O)ccc5s4)C(=O)N32)C1 [Compound 69, (difluoro(2-(((3S,6S,10aS)-3-(3-((1-methyl-1H-pyrazol-5-yl)methylene)azetidine-1-carbonyl)-5-oxodecahydropyrrolo [1,2-a]azocin-6-yl)carbamoyl)benzo[b]thiophen-5-yl)methyl) phosphonic acid] |  |  | 100 to 1000 | 0.3 to 3
14 | COCC(NC(=O)[C@@H]1CC[C@@H]2CCCC[C@H](NC(=O)c3cc4cc(C(F)(F)P(=O)(O)O)ccc4s3)C(=O)N21)c1c[nH]c2ncccc12 (stereo partly drawn) [Compound 1121, (difluoro(2-(((3S,6S,10aS)-3-((2-methoxy-1-(1H-pyrrolo[2,3-b]pyridin-3-yl)ethyl)carbamoyl)-5-oxodecahydropyrrolo[1,2-a]azocin-6-yl)carbamoyl)benzo[b]thiophen-5-yl)methyl)phosphonic acid] | 1000 to 10000 | 3 to 30 |  | 
15 | N#C[C@H]1[C@H](c2ccccc2)CN(C(=O)[C@@H]2CC[C@@H]3CCCC[C@H](NC(=O)c4cc5cc([C@@H](F)P(=O)(O)O)ccc5s4)C(=O)N32)C12CC2 (single isomer, unassigned) [Compound 836] | 1000 to 10000 | ≤ 0.3 |  | 
16 | O=C(N[C@H]1CCC[C@H]2CC[C@@H](C(=O)N3C(=O)N(c4cccnc4)C(=O)C34CC4)N2C1=O)c1cc2cc([C@H](F)P(=O)(O)O)ccc2s1 [Compound 915, ((R)-(2-(((3S,6S,9aS)-3-(5,7-dioxo-6-(pyridin-3-yl)-4,6-diazaspiro[2.4]heptane-4-carbonyl)-5-oxooctahydro-1H-pyrrolo[1,2-a]azepin-6-yl)carbamoyl)benzo [b]thiophen-5-yl)fluoromethyl) phosphonic acid] | 1000 to 10000 | ≤ 0.3 |  | 
17 | O=C(N[C@H]1CCCC[C@H]2CC[C@@H](C(=O)N3CC(N4CCOCC4)C3)N2C1=O)c1cc2cc(C(F)(F)P(=O)(O)O)ccc2s1 [Compound 113, (difluoro(2-(((3S,6S, 10aS)-3-(3-morpho-linoazetidine-1-carbonyl)-5-oxodecahydropyrrolo[1,2-a]azocin-6-yl)carbamoyl)benzo[b]thiophen-5-yl)methyl)ph osphonic acid] |  |  | 100 to 1000 | 3 to 30
